# Patent US20120309717A1, “COMPOUNDS, METHODS AND PHARMACEUTICAL COMPOSITIONS FOR INHIBITING PARP” (EISAI INC., priority 2003, published 2012)
# Key:
# [1] = test system: human fibroblast cells lines (W138 or BJ cells); experiment: proliferative capacity and lifespan of human fibroblast cells; format: cell-based
# Description: At the time of subdivision, the media is aspirated, and the cells rinsed with phosphate buffer saline (PBS) and then trypsinized. The cells are counted with a Coulter counter and plated at a density of 10^5 cells per cm^2 in 6-well tissue culture plates in DMEM/199 medium supplemented with 10% bovine calf serum and varying amounts (0.10 μM, and 1 mM: from a 100× stock solution in DMEM/M199 medium) of a PARP inhibitor. This process is repeated every 7 days until the cells appear to stop dividing. The untreated (control) cells reach senescence and stop dividing after about 40 days in culture. […] The cells treated with 1 mM 3-AB will still divide after 60 days in culture.
# colitis = settings: rats; cited from earlier work
# [2] = test system: ischemia and reperfusion of the heart; settings: single injection 10 mg/kg, one minute before occlusion or before reperfusion; cited from earlier work
# [3] = test system: regional heart ischemia reperfusion; experiment: regional heart ischemia reperfusion model (LAD occlusion); format: in vivo, rat; settings: iv bolus pre-ischemia plus iv bolus post-ischemia, 10 to 40 mg/kg; 30 min LAD occlusion, 2 hr reperfusion; male SD rats
# Description: In the present study, we investigated the effects of 43 in the regional heart ischemia reperfusion model. In regional heart ischemia model, sodium thiopental-anaesthetized male SD rats were subjected to occlusion of LAD coronary artery for 30 min followed by 2 hr of reperfusion. The infarct size was quantified by TTC staining method and expressed as percent of area at risk.
# The left anterior descending coronary artery of Sprague-Dawley rats was occluded for 30 minutes. This was followed by 90-120 minutes of blood reflow. PARP inhibitor compounds were given intraperitoneally (ip), 60 minutes pre-, or intravenously (iv), 15 or 5 minutes pre- and 25 minutes post-onset of ischemia. Infarct size was determined by TTC staining and the risk area was determined via blue dye injection.
# B16 melanoma [4] = experiment: B16 melanoma growing at the CNS site (intracranial); format: in vivo, mouse
# Description: (§1) The intracranial transplantation procedure was performed as previously described (Tentori 2002b). Cells (10^4 in 0.03 ml of RPMI-1640) were injected intra-cranially (ic) through the center-middle area of the frontal bone to a 2 mm depth, using a 0.1 ml glass microsyringe and a 27-gauge disposable needle.
# (§2) Murine melanoma B16 or lymphoma L5178Y cells (10^4) were injected ic into male B6D2F1 (C57BL/6×DBA/2) mice. Human glioblastoma multiforme SJGBM2 cells (10^6) were injected ic into male athymic BALB/c mice (nu/nu genotype). Before tumor challenge, animals were anesthetized with ketamine (100 mg/kg) and xylazine (5 mg/kg) in 0.9% NaCl solution (10 ml/kg/ip).
# (§3) Mice were monitored for mortality for 90 days. Median survival times (MST) were determined and the percentage of increase in lifespan (ILS) was calculated as: {[MST (days) of treated mice/MST (days) of control mice]−1}×100. Efficacy of treatments was evaluated by comparing survival curves between treated and control groups.
# (§4) To assess the ability of different treatments to reduce tumor growth, histological examination of the brains was performed using additional animals that were not considered for the analysis of survival. Mice were sacrificed at different time points after tumor challenge, selected within the MST range of untreated tumor-bearing animals.
# [5] = test system: lymphoma cell line L5178Y; experiment: colony-formation assay, L5178Y; format: cell-based, murine
# Description: (§5) The murine melanoma cell line B16 of C57BL/6J (H-2^b/H-2^b) origin and the lymphoma cell line L5178Y of DBA/2 (H-2^d/H-2^d) origin (ATCC, Manassas, Va.) were cultured in RPMI-1640 containing 10% fetal calf serum (Invitrogen, Milan, Italy), 2 mM L-glutamine, 100 units/ml penicillin and 100 μg/ml streptomycin (Flow Laboratories, Mc Lean, Va.), at 37° C. in a 5% CO2 humidified atmosphere. The human glioblastoma multiforme cell line SJGBM2 was cultured in DMEM (Invitrogen) supplemented with 10% fetal calf serum, 2 mM L-glutamine and antibiotics. SJGBM2 cell line was a kind gift from Dr. Peter J. Houghton (St. Jude Children's Research Hospital, Memphis, Tenn., USA).
# (§6) […] For the experiments aimed at assessing the enhancing effect of 43 on TMZ-induced tumor growth inhibition, the methylating agent was added to cell cultures 15 min after 43 was used at concentrations non-toxic, and capable of abrogating PARP activity.
# (§7) Long-term survival was analyzed by colony-formation assay. Exponentially growing melanoma and glioblastoma cells were seeded into 6-well plates at a density of 2×10^2/well and left to attach for 18 h; cells were then treated with the compounds under study and cultured to allow colony formation. After 10 days, colonies (defined as a cluster of >50 cells) were fixed and stained with rhodamine B basic violet 10 (ICN Biomedicals Inc., Aurora, Ohio, USA). Untreated or treated lymphoma cells were seeded at 1 cell/well in 96-well plates (flat-bottomed) and cultured. After 10 days, colonies were counted to determine cloning efficiency, using an optical microscope (Tentori 2001b).
# (§8) Cell line chemosensitivity to TMZ, 43 or to the drug combination was evaluated in terms of IC50, i.e. the concentration of the drug expressed in μM, capable of inhibiting colony-forming ability by 50%. The IC50 was calculated on the regression line in which the number of colonies was plotted vs the drug concentration.
# [6] = crossing of the blood-brain barrier; format: in vivo; settings: systemic administration
# [7] = test system: human glioblastoma multiforme cell line SJGBM2; experiment: colony-formation assay, SJGBM2; format: cell-based
# Description: as §5
# Cells were treated with 43 (0.1-20 μM) or with TMZ (1-250 μM). For the experiments aimed at assessing the enhancing effect of 43 on TMZ-induced tumor growth inhibition, the methylating agent was added to cell cultures 15 min after 43 was used at concentrations non-toxic, and capable of abrogating PARP activity.
# as §7, §8
# B16 melanoma [8] = experiment: B16 melanoma growing subcutaneously in B6D2F1 mice; format: in vivo, mouse; settings: 3 days
# Description: 43 was administered 15 min before TMZ administration. Control mice were always injected with drug vehicles.
# The efficacy of TMZ±43 treatment was also evaluated on melanoma growing subcutaneously (sc). For this purpose B16 cells (2.5×10^5) were inoculated sc in the flank of the animal. Tumors were measured with calipers and volume calculated according to the formula: [(width)^2×length]/2. Treatment was started 6 days after challenge, when the volume of tumor nodules reached 100-150 mm^3. Melanoma growth was monitored, by measuring tumor nodules every 3 days for 3 weeks.
# [9] = test system: murine melanoma cell line B16; experiment: colony-formation assay, B16; format: cell-based
# Description: as §5, §6, §7, §8
# [10] = drug toxicity / maximal tolerated dose in intact mice; settings: TMZ ip + 43 iv, for 3 days
# Description: Drug toxicity was evaluated by treating intact mice (5/group) with the compounds under study, used as single agents or in combination. Control groups were treated with vehicles only. Body weight was measured three times weekly and survivals were recorded for 3 weeks after the last treatment. Toxicity was assessed on the basis of apparent drug-related deaths and net body weight loss [i.e., (initial weight−lowest weight/initial weight)×100%]. Death was considered drug-related when occurring within 7 days after the last treatment.
# 43 was dissolved in 70 mM PBS without potassium, and injected intravenously (iv) at different doses (40-200 mg/kg) to establish the maximal tolerated dose.
# TMZ was dissolved in dimethyl-sulfoxide (40 mg/ml), diluted in saline (5 mg/ml) and administered ip at doses commonly used for in vivo preclinical studies (Friedman 1995; Middleton 2000; Kokkinakis 2001). Experiments were performed using different doses and schedules of TMZ+43 to determine the maximal tolerated dose of the drug combination. 43 was administered 15 min before TMZ administration. Control mice were always injected with drug vehicles.
# [11] = test system: SJGBM2 human glioblastoma multiforme; experiment: orthotopic human glioblastoma multiforme xenograft in nude mice; format: in vivo, mouse; settings: with respect to controls or single agents
# Description: as §1, §2, §3, §4
# endotoxic shock = settings: cited from earlier work
structure (smiles),measurement,setting,value
NC(=O)c1cccc(N)c1 [3-amino-benzamide],effect on lifespan of the cells,[1]; 10 μM,little or no effect
same,effect on lifespan of the cells,[1]; 100 μM,lengthen the lifespan of the cells
same,effect on lifespan and proliferative capacity of the cells,[1]; 1 mM,dramatically increases the lifespan and proliferative capacity
same,time in culture at which cells still divide,"[1]; 1 mM, untreated cells stop after about 40 days",> 60 days
same,"inflammatory response, distal colon",colitis,reduced the inflammatory response
same,reduction in infarct size in the heart,[2],32-42%
"CN1CCN(Cc2ccc3c(c2)-c2n[nH]c(=O)c4cccc(c24)O3)CC1 [Compound 43, 10-(4-Methyl-piperazin-1-ylmethyl)-2H-7-oxa-1,2-diaza-benzo[de]anthracen-3-one]",cardiac protection (infarct size),[3],significant cardiac protection
same,tumor infiltration in the brain (histology),B16 melanoma [4],pronounced and diffuse tumor infiltration
same,intrinsic growth inhibition as single agent,"[5]; 1-25 μM 43, L5178Y",some intrinsic growth inhibition
same,maximal increase of TMZ growth inhibitory effect,"[5]; L5178Y, 1.2 μM 43",~10 fold
same,intrinsic growth inhibitory effect,"[5]; L5178Y, 2.5 μM 43",intrinsic growth inhibitory effect
same,blood-brain barrier crossing,[6],capable of crossing the blood-brain barrier
same,intrinsic growth inhibition as single agent,"[7]; 1-25 μM 43, SJGBM2",some intrinsic growth inhibition
same,maximal increase of TMZ growth inhibitory effect,"[7]; SJGBM2, 1.2 μM 43",~4 fold
same,intrinsic growth inhibitory effect,"[7]; SJGBM2, 2.5 μM 43",intrinsic growth inhibitory effect
same,"tumor growth, 43 only","B16 melanoma [8]; 43 40 mg/kg/day iv, single agent",did not affect tumor growth
same,enhancement of the antitumor effects of TMZ,"B16 melanoma [8]; TMZ 100 mg/kg/day ip + 43 40 mg/kg/day iv, P <0.0001",significantly enhanced
same,intrinsic growth inhibition as single agent,"[9]; 1-25 μM 43, B16",some intrinsic growth inhibition
same,maximal enhancement of TMZ-induced growth inhibition,"[9]; B16, 0.6 μM 43",10 fold
same,susceptibility to antiproliferative effect with respect to SJGBM2 and L5178Y,"[9]; B16, 43 as single agent",more susceptible
same,inhibition at 1.2 µM,"[9]; Mus musculus, B16, 43 at 1.2 μM, read-out: growth inhibition with respect to control",18 ± 3%
"Cn1nnc2c(C(N)=O)ncn2c1=O [TMZ, temozolimide]",tumor infiltration in the brain (histology),B16 melanoma [4],limited but multifocal infiltration
same,highest tolerable dose of the drug combination,[10],100 mg/kg/day
same,survival of tumor bearing mice,[11],completely ineffective
NC(=O)c1cccnc1 [nicotinamide],protection against vascular failure,endotoxic shock,"protects against delayed, NO-mediated vascular failure"
